Series [1] in a line: Aqueous solubility of compound vs zinc concentration. Particulars: aqueous saline, pH 7.0, room temperature. The format is physicochemical. How it is done: Compounds that may advantageously be used to practice the invention can be and were tested to determine their solubility in pH 7 water at different zinc concentrations using the following procedure.
A stock zinc solution was prepared by dissolving ZnCl2 in de-ionized water to a concentration of 100 mg/ml and adjusting the pH to 2.7 using HCl. Solutions having various ZnCl2 concentrations (“Zn Test Solutions”) were prepared by making appropriate dilutions of the stock solution.
1 mg of the compound of Example 1 was dissolved in 250 μl of each Zn Test Solution to yield a solution having 4 mg/ml of the Example 1 compound. […] The precipitation solution was centrifuged and the mother liquor analyzed using HPLC. The UV absorption area of test compound peak was measured and the concentration of the test compound in the mother liquor was determined via comparison to a calibration curve.
As a representative example of a compound that may be used to practice the invention, the compound of Example 1 was tested in the immediately foregoing assay and the following results were obtained (aqueous saline, pH 7.0, room temperature): […]

In series [2] the test system is adult male Sprague-Dawley rats. Kind of series: In vivo assay G.1/G.2: insulin secretion after iv glucose challenge following sc injection. Details: species or system rat. Conditions: clear solution pH 4.0 with zinc (Preparation D), sc 75 μg/kg, fasted rats, iv glucose 1 g/kg at 0.25-24 h. How it is done: The day prior to the experiment, adult male Sprague-Dawley rats (Taconic, Germantown, N.Y.) that weighed approximately 300-350g were implanted with a right atrial jugular cannula under chlorohydrate anesthetic. The rats were then fasted for 18 hours prior to the injection of the appropriate test composition or vehicle control at time 0. The rats continued to be fasted throughout the entire experiment.
At time zero the rats were injected subcutaneously (sc) either with (a) the compound of Example 1 (Aib^8,^35, Arg^26,^34, Phe^31)hGLP-1(7-36)NH2) at pH 4.0 as a clear solution (i.e., the solution of Preparation D.), or (b) the compound of Example 1 at pH 7.0 as a suspension or gel (i.e., the suspension or gel of Preparation E.). […] At the appropriate time after the sc injections a 500 μl blood sample was withdrawn via the intravenous (iv) cannula and the rats were given an iv glucose challenge to test for the presence of enhanced insulin secretion. The times of the glucose challenge were 0.25, 1, 6, 12 and 24 hours post-compound injection. After the initial blood sample was withdrawn glucose (1 g/kg) was injected iv and flushed in with 500 μl heparinized saline (10U/mL). […] The amount of insulin in each sample was determined using a rat insulin enzyme-linked immunosorbant assay (ELISA) kit (American Laboratory Products Co., Windham, N.H.). […]

The record followed here is US7521527B2 (Societe de Conseils de Recherches et d'Applications …, priority 2003, dated 2009).

Values after ≈ are worked out from the molar mass of the structure shown. Where a SMILES comes first, the peptide text is derived from it. [ ]: non-standard residue; d: D form. Aib = CC(C)(N)C(=O)O

As for `CC[C@H](C)[C@H](NC(=O)[C@H](Cc1ccccc1)NC(=O)[C@H](CCC(=O)O)NC(=O)[C@H](CCCNC(=N)N)NC(=O)[C@H](C)NC(=O)[C@H](C)NC(=O)[C@H](CCC(N)=O)NC(=O)CNC(=O)[C@H](CCC(=O)O)NC(=O)[C@H](CC(C)C)NC(=O)[C@H](Cc1ccc(O)cc1)NC(=O)[C@H](CO)NC(=O)[C@H](CO)NC(=O)[C@@H](NC(=O)[C@H](CC(=O)O)NC(=O)[C@H](CO)NC(=O)[C@@H](NC(=O)[C@H](Cc1ccccc1)NC(=O)[C@@H](NC(=O)CNC(=O)[C@H](CCC(=O)O)NC(=O)C(C)(C)NC(=O)[C@@H](N)Cc1c[nH]cn1)[C@@H](C)O)[C@@H](C)O)C(C)C)C(=O)N[C@@H](C)C(=O)N[C@@H](Cc1ccccc1)C(=O)N[C@@H](CC(C)C)C(=O)N[C@H](C(=O)N[C@@H](CCCNC(=N)N)C(=O)NC(C)(C)C(=O)N[C@@H](CCCNC(=N)N)C(N)=O)C(C)C` [Example 1, (Aib^8,^35, Arg^26,^34, Phe^31)hGLP-1(7-36)NH2] (H-H[Aib]EGTFTSDVSSYLEGQAAREFIAFLVR[Aib]R-NH2), the solubility – broadly, the concentration that dissolves in the medium under given conditions – in series [1] (pH 7, ZnCl2 concentration 0 μg/mL) is 53.9 µg/mL (≈ 16.1 µM); in series [1] (pH 7, ZnCl2 concentration 80 μg/mL) it was 5.9 µg/mL (≈ 1.76 µM); in series [1] (pH 7, ZnCl2 concentration 500 μg/mL), 5.6 µg/mL (≈ 1.67 µM); in series [1] (pH 7, ZnCl2 concentration 1000 μg/mL), 9.7 µg/mL (≈ 2.89 µM); in series [1] (pH 7, ZnCl2 concentration 1500 μg/mL) it was 9.7 µg/mL (≈ 2.89 µM); in series [1] (pH 7, ZnCl2 concentration 2500 μg/mL), 11 µg/mL (≈ 3.28 µM).
Take (Aib^8,35)hGLP1(7-36)NH2: the “duration of sustained insulin-enhancing activity inducible by glucose injection” value in series [2] was 24 h.
